Experiments:
[1] = Drug metabolism in pooled rat liver microsomes assessed as O-demethylation mediated metabolite formation at 40 uM measured upto 60 mins in the presence of NADPH by HPLC(UV) analysis; type: ADME, Microsome; settings: 1 h
[2] = Permeability of the compound across basal to apical membrane in human Caco-2 cells at 50 uM incubated for 4 hrs by HPLC(UV) analysis; type: ADME, cell-based; settings: caco-2, 4 h
[3] = molecular target: T1, Alpha-1A adrenergic receptor (Homo sapiens, UniProt P35348); test: Displacement of [3H]prazosin from adrenergic alpha 1A receptor (unknown origin) expressed in HEK293T cells assessed as inhibition constant by competition binding assay; type: cell-based
T1 sequence (P35348 whole entry): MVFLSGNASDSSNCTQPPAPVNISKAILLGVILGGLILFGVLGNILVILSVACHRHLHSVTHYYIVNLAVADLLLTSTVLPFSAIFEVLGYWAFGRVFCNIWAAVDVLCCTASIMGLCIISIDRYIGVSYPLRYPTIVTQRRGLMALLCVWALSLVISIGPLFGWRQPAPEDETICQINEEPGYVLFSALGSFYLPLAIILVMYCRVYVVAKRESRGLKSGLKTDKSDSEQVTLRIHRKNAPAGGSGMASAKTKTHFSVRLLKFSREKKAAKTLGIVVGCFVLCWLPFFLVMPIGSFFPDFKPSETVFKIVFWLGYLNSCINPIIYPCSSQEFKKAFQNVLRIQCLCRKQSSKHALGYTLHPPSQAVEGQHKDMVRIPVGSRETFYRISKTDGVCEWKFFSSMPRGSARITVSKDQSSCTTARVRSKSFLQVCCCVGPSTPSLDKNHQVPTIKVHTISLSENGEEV

D(2) dopamine receptor [4] = molecular target: T2, D(2) dopamine receptor (Homo sapiens, UniProt P14416); test: Displacement of [3H]-N-methylspiperone from human dopmaine D2S receptor expressed in CHO cell membrane assessed as inhibition constant by competition binding assay; type: cell membranes
D(1B) dopamine receptor = D(1B) dopamine receptor (Homo sapiens, UniProt P21918); test: Displacement of [3H]SCH23390 from human dopamine D5 receptor expressed in HEK293T cells assessed as inhibition constant by competition binding assay; type: cell-based
[5] = Retention time of the compound by HPLC(UV) method; type: physicochemical
D(3) dopamine receptor = D(3) dopamine receptor (Homo sapiens, UniProt P35462); test: Displacement of [3H]-N-methylspiperone from human dopmaine D3 receptor expressed in HEK293T cells assessed as inhibition constant by competition binding assay; type: cell-based
D(1A) dopamine receptor = D(1A) dopamine receptor (Homo sapiens, UniProt P21728); test: Displacement of [3H]SCH23390 from human dopamine D1 receptor expressed in HEK293T cells assessed as inhibition constant by competition binding assay; type: cell-based
[6] = molecular target: T3, Alpha-2A adrenergic receptor (Homo sapiens, UniProt P08913); test: Displacement of [3H]RX821002 from adrenergic alpha 2A receptor (unknown origin) expressed in HEK293T cells assessed as inhibition constant by competition binding assay; type: cell-based
T3 sequence (P08913 whole entry): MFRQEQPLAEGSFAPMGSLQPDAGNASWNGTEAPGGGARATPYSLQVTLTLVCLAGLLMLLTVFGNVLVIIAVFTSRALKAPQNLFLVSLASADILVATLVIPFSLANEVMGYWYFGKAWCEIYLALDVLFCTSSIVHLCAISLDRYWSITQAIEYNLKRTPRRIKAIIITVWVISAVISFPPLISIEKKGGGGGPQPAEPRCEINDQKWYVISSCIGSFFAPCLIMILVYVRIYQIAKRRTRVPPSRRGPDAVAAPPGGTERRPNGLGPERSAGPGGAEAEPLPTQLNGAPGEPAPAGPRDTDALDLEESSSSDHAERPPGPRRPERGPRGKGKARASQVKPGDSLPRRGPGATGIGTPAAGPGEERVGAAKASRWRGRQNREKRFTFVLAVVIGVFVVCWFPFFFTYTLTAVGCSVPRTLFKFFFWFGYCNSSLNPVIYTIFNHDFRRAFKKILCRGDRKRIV

D(2) dopamine receptor [7] = molecular target: T2, D(2) dopamine receptor; test: Displacement of [3H]-N-methylspiperone from human dopmaine D2L receptor expressed in CHO cell membrane assessed as inhibition constant by competition binding assay; type: cell membranes
[8] = Apparent permeability of the compound across basal to apical membrane in human Caco-2 cells at 50 uM incubated for 4 hrs by HPLC(UV) analysis; type: ADME, cell-based
[9] = molecular target: T4, 5-hydroxytryptamine receptor 1A (Homo sapiens, UniProt P08908); test: Displacement of [3H][…] from 5-HT1A receptor (unknown origin) expressed in HEK293T cells assessed as inhibition constant by competition binding assay; type: cell-based
T4 sequence (P08908 whole entry): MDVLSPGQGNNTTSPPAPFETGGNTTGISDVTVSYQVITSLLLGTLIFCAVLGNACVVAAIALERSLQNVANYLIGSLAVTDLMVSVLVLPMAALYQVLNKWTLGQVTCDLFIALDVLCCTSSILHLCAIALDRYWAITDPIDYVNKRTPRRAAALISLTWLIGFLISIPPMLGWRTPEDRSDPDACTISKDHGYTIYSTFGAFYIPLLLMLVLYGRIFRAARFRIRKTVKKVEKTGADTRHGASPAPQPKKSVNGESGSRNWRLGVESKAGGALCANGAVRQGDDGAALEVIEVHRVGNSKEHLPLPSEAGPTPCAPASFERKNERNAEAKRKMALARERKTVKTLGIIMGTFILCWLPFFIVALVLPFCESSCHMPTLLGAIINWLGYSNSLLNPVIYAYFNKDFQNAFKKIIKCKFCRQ

[10] = Drug metabolism in pooled rat liver microsomes assessed as hydroxylation mediated metabolite formation at 40 uM measured upto 60 mins in the presence of NADPH by HPLC(UV) analysis; type: ADME, Microsome; settings: 1 h
[11] = molecular target: 5-hydroxytryptamine receptor 2A (Homo sapiens, UniProt P28223); test: Displacement of [3H]ketanserin from 5-HT2A receptor (unknown origin) expressed in HEK293T cells assessed as inhibition constant by competition binding assay; type: cell-based
[12] = Permeability of the compound across basal to apical membrane in human Caco-2 cells at 5 uM incubated for 4 hrs by HPLC(UV) analysis; type: ADME, cell-based; settings: caco-2, 4 h
[13] = Permeability of the compound across basal to apical membrane in human Caco-2 cells at 5 uM incubated for 4 hrs in the presence of valspodar by HPLC(UV) analysis; type: ADME, cell-based; settings: caco-2, 4 h

T2 sequence (P14416 whole entry): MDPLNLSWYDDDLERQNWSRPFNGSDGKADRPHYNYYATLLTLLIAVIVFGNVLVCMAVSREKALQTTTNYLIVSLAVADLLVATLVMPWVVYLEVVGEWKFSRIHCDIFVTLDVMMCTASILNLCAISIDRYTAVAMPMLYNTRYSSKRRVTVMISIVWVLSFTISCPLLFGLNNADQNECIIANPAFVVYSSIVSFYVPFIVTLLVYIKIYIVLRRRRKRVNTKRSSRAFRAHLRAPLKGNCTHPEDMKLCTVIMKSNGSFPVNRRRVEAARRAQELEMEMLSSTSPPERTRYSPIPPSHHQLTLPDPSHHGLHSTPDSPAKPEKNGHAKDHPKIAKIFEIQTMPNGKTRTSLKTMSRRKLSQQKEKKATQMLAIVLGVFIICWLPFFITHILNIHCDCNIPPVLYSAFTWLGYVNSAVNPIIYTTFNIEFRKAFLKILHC
Sequence of D(3) dopamine receptor (P35462 whole entry): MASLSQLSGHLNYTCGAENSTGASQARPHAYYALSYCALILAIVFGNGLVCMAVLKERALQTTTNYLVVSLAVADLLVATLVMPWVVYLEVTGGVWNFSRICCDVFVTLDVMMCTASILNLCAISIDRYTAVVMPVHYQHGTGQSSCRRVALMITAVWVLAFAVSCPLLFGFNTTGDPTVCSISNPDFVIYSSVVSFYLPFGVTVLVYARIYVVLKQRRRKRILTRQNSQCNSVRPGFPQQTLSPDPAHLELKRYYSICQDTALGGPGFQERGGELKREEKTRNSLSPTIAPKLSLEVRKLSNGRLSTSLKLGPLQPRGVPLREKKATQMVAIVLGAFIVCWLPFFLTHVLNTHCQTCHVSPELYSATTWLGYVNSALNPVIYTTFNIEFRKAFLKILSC
Sequence of D(1A) dopamine receptor (P21728 whole entry): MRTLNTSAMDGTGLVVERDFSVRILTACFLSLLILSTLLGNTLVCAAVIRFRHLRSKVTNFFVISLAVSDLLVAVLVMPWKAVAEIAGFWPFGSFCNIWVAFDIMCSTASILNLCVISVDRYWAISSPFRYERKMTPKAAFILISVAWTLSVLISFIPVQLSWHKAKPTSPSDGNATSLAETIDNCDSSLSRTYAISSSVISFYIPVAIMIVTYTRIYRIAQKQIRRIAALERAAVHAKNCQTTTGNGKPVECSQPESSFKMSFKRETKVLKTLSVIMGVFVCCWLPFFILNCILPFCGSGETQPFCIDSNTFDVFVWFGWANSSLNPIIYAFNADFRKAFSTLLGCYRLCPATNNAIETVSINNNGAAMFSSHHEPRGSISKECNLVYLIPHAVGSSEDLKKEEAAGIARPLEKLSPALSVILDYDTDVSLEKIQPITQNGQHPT
Sequence of 5-hydroxytryptamine receptor 2A (P28223 whole entry): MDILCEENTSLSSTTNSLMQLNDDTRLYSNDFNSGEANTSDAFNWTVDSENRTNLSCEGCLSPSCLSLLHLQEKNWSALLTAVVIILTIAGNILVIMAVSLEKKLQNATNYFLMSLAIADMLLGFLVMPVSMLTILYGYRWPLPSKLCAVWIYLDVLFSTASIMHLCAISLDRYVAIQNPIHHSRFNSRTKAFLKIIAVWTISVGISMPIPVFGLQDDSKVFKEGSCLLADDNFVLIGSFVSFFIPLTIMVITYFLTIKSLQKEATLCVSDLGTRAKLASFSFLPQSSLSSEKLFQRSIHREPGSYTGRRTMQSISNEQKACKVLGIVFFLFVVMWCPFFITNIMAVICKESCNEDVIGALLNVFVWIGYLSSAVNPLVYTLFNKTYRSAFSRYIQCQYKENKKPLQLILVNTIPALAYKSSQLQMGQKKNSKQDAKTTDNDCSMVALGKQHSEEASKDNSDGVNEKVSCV
Sequence of D(1B) dopamine receptor (P21918 whole entry): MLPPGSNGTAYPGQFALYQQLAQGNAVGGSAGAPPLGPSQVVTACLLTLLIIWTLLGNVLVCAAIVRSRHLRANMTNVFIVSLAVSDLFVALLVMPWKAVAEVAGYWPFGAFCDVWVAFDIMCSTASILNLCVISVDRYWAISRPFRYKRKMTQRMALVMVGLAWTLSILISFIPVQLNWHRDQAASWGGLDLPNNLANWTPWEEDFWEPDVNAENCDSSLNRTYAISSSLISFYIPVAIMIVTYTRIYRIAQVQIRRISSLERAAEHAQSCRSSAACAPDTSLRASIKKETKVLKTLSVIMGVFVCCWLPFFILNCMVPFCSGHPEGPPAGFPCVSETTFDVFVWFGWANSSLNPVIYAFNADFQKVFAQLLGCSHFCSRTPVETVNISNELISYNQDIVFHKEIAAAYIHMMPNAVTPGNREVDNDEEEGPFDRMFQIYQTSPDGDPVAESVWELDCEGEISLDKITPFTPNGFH

Compound | Drug metabolism [1] | permeability [2] | Ki [3] [nM] | Ki (D(2) dopamine receptor [4]) [nM] | Ki (D(1B) dopamine receptor) [nM] | Retention_time [5] [min] | Ki (D(3) dopamine receptor) [nM] | Ki (D(1A) dopamine receptor) [nM] | Ki [6] [nM] | Ki (D(2) dopamine receptor [7]) [nM] | Papp B→A at 4 h, 50 µM [8] [×10⁻⁶ cm/s] | Ki [9] [nM] | Drug metabolism [10] | Ki [11] [nM] | permeability [12] [%] | permeability [13] [%]
COc1ccccc1N1CCN(CCCNC(=O)Nc2ccccc2-c2ccc(-c3ccccc3)cc2)CC1 | Metabolite_Detected | Impermeable | 8.2 | 36 | 350 | 4.37 | 44 | 16 | 150 | 52 | > 1 | 100 | Metabolite_Detected | 160 |  | 
C[C@H]1O[C@@H](O[C@H]2[C@@H](O)C[C@H](O[C@H]3[C@@H](O)C[C@H](O[C@H]4CC[C@@]5(C)[C@H](CC[C@@H]6[C@@H]5C[C@@H](O)[C@]5(C)[C@@H](C7=CC(=O)OC7)CC[C@]65O)C4)O[C@@H]3C)O[C@@H]2C)C[C@H](O)[C@@H]1O [DIGOXIN] |  |  |  |  |  |  |  |  |  |  |  |  |  |  | 22.9 | 12.1

— ChEMBL document CHEMBL5346968, “Exploring Structural Determinants of Bias among D4 Subtype-Selective Dopamine Receptor Agonists” (J Med Chem, 2023)
